We go through two compounds from US20220242827A1, “PHENYLMETHYLPYRAZOLONE COMPOUND HAVING A NOVEL CRYSTAL FORM, AND METHOD FOR PRODUCING SAME” (SIA EMTEKO HOLDING, priority 2019, published 2022).

Converted amounts (≈) assume the structure as drawn.

Usually solubility stands for the dissolved amount per volume that the medium holds. Read a high solubility as a readily soluble substance.

Format in all cases: physicochemical
The nature of data set [1]: Storage stability in climate chamber at 25° C. and 60% relative humidity for 24 months. The conditions noted are these: for pH: normalization 4.5-5.5; for Quantification: normalization more than 99.0; for Impurity 1: normalization not more than 0.1%; for Sum of impurities: normalization not more than 0.3%; for stability on storage (content of the basic substance, content of impurities, pH): 60% humidity. Here is the method:
The improved stability of the resulting polymorphic form was confirmed by experiments in a climate chamber at 25° C. and 60% humidity.
Comparison of Critical Quality Indicators of Known and Novel Polymorphic Forms of FMP After 24 Months of Storage at 25° C. and 60% Relative Humidity

Another data set is described as follows: Solubility in water. Here is the method: The solubility of the obtained samples was checked by dissolving in water with vigorous stirring for 30 minutes at 25° C.
Data set [2] is described as follows: Electrostatic adhesion model experiment in 316L stainless steel tank. The conditions noted are these: for surface area of the tank covered with the FMP crystals: 316L stainless steel tank, after thorough mixing and release. On the procedure:
The following model experiment was performed to test the ability of electrostatic adhesion of the new polymorphic form. The FMP sample was placed in a 316L stainless steel tank, similar to the steel used to make working parts of industrial pharmaceutical equipment. After thorough mixing in the tank, the PMF was released from it and the surface area of the tank covered with the FMP crystals was measured. For the known polymorphic form, this figure was 19.5%, for the new form—12.8%, which is about one third less.

Where [3] appears, read: 24 months at 25° C. and 60% relative humidity.

Consider `CC1=NN(c2ccccc2)C(=O)C1` [Known form of FMP, 1-phenyl-3-methyl-5-pyrazolone, reference compound], for which, in data set [1] (0 months), the Description entry is “White”, the pH came to 4.7, the Quantification stood at 99.8% and the “Impurity 1” value was found to be 0.02%. The compound also returned a Sum of impurities in data set [1] (0 months) of 0.07%. Moreover, in data set [1] (setting [3]), the Description entry is on record as “White”, the pH is on record as 4.6, the Quantification amounted to 99.6% and the “Impurity 1” value is 0.08%. In data set [1] (setting [3]), this compound yielded a Sum of impurities of 0.18%. Also, in “Solubility in water” (dissolving in water with vigorous stirring for 30 minutes at 25° C., listed as known forms), the solubility in water result was “less than 0.2 mg/ml”. The “surface area of the tank covered with the FMP crystals” value in data set [2] (listed as known polymorphic form) is listed as 19.5%.
`CC1=NN(c2ccccc2)C(=O)C1` [A new form of FMP, 1-phenyl-3-methyl-5-pyrazolone]: in data set [1] (0 months), the Description entry was “White”, the pH is on record as 4.8, the Quantification worked out at 99.8% and the “Impurity 1” value is listed as 0.03%. In data set [1] (0 months), this compound had a Sum of impurities of 0.09%. Moreover, in data set [1] (setting [3]), the Description result is listed as “White”, the pH came to 4.8, the Quantification amounted to 99.7% and the “Impurity 1” value is on record as 0.04%. In data set [1] (setting [3]), this compound displayed a Sum of impurities of 0.10%. Further, in data set [1] (24 months, 25° C.), the “stability on storage (content of the basic substance, content of impurities, pH)” value is “more stable”. In addition, the “stability on storage (content of the basic substance, content of impurities, pH)” value in data set [1] (24 months, 25° C., listed as resulting polymorphic form) was “did not change its key characteristics”. For the same compound, in data set [1] (24 months, 25° C., 60% relative humidity, versus known form), the “rate of impurity formation” value is reported as “much lower”. In addition, the “solubility (comparison among the samples)” value in the data set “Solubility in water” (among samples #1 to #6) is reported as “best”. The concentration in solution in “Solubility in water” (water, 25 °C, thermodynamic from solid, dissolving in water with vigorous stirring for 30 minutes at 25° C.) (solubility at 30 min) was 300 µg/mL (≈ 1720 µM). Also, the “surface area of the tank covered with the FMP crystals” value in data set [2] is listed as 12.8%. For the same compound, the “electrostatic index (comparison among the samples)” value in data set [2] (among samples #1 to #6) was “best”.
